Assays:
cartilage degradation = experiment: protection against cartilage degradation in a surgical model of osteoarthritis; format: in vivo
Text: The effect in protecting against cartilage degradation in arthritic disorders can be determined e.g. in a surgical model of osteoarthritis described in Arthritis and Rheumatism, Vol. 26, 875-886 (1983).

[1] = biological target: recombinant human stromelysin (Homo sapiens, UniProt P08254); experiment: release of KS and S-GAG fragments into the joint in rabbits after intra-articular injection of recombinant human stromelysin; format: in vivo, rabbit; details: 30 mg/kg, 4 hours prior to injection of human recombinant stromelysin
Chain of recombinant human stromelysin (P08254 100-477): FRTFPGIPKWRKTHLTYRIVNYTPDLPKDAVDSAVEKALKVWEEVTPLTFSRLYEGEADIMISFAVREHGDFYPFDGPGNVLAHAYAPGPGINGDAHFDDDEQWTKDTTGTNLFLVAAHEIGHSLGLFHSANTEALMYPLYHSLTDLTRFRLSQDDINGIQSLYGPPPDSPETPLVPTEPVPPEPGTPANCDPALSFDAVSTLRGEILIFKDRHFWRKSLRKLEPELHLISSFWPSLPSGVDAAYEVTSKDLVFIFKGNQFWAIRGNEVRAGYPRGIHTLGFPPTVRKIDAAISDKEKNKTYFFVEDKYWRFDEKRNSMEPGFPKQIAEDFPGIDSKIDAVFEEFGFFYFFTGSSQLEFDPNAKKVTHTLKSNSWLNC
Protocol: The effect of compounds of the invention in-vivo can be determined in rabbits. […] Two hours later the rabbits are sacrificed, synovial lavage is collected, and keratan sulfate (KS) and sulfated glycosaminoglycan (S-GAG) fragments released into the joint are quantitated. Keratan sulfate is measured by an inhibition ELISA using the method of Thonar (Thonar, E. J.-M. A., Lenz, M. E., Klinsworth, G. K., Caterson, B., Pachman, L. M., Clickman, P.., Katz, R., Huff, J., Keuttner, K. E. Quantitation of keratan sulfate in blood as a marker of cartilage catabolism, Arthr. Rheum. 28, 1367-1376 (1985)). Sulfated glycosaminoglycans are measured by first digesting the synovial lavage with streptomyces hyaluronidase and then measuring DMB dye binding using the method of Goldberg (Goldberg, R. L. and Kolibas, L. An improved method for determining proteoglycan synthesized by chondrocytes in culture. Connect. Tiss. Res. 24, 265-275 (1990)). For an i.v. study, a compound is solubilized in 1 ml of PEG-400, and for a p.o. study, a compound is administered in 5 ml of fortified […] per kilogram of body weight.

With COc1ccc(S(=O)(=O)N(Cc2cccnc2)[C@@H](C(=O)NO)C(C)C)cc1.Cl [N-hydroxy-2(R)-[[4-methoxybenzenesulfonyl](3-picolyl)amino]-3-methylbutanamide hydrochloride] the “effect in protecting against cartilage degradation in arthritic disorders” value (cartilage degradation) was “protects against cartilage degradation”, the “inhibition in the release of KS fragments into the joint” value ([1]; KS by inhibition ELISA) was 72% and the “inhibition in the release of S-GAG fragments into the joint” value ([1]; S-GAG by DMB dye binding) was 70%.

Reference: patent US5552419A, “Arylsulfonamido-substituted hydroxamic acids” (Ciba-Geigy Corporation, priority 1993, dated 1996)
